Measurements: US20260356830A1, “COMPOUNDS FOR MODULATING RET PROTEIN” (Bristol-Myers Squibb Company, priority 2022, published 2026)

Target: T1, CCDC6-RET (Homo sapiens, UniProt P07949+Q16204+Q96SW2)
T1 construct: CCDC6 (natural N-terminal fusion partner, UniProt Q16204); endogenous in cells; host or cells: TPC-1 (parental, papillary thyroid carcinoma)
Test: Cellular RET degradation, AlphaLISA, TPC-1 cell line
Assay type: cell-based
Settings: for Dmax: TPC1, human, 24 h, read-out: Cell Density TPC-1/CCDC6-RET Ymax %; for DC50: read-out: Cell Density TPC-1/CCDC6-RET DC50, half-maximal degradation concentration, TPC-1 (CCDC6-RET), 24 hrs
Procedure, shortened: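 Luminescent AlphaLISA read of RET abundance in lysates after 24 h compound exposure (37 °C, 2% FBS DMEM) of CCDC6-RET-bearing TPC-1 cells. % degradation relative to DMSO (high) and media (low) controls, fitted to 4-parameter logistic curve for DC50 and Ymax.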

T1 sequence (Q16204+P07949 fused): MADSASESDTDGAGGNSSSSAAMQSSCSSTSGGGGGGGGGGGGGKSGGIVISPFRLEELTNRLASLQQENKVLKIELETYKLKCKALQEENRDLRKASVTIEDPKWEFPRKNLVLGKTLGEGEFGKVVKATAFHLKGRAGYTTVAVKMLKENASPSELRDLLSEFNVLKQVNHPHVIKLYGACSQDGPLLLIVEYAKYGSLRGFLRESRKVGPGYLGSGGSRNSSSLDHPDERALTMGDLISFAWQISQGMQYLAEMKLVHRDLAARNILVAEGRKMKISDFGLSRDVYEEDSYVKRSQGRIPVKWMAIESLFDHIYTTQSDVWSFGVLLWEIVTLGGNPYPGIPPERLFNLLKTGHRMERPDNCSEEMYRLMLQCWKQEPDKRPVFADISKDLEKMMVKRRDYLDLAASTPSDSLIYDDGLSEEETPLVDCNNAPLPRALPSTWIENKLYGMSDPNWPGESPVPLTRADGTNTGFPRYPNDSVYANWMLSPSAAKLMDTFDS
T1 sequence (Q96SW2 whole entry, the tested form may be a part): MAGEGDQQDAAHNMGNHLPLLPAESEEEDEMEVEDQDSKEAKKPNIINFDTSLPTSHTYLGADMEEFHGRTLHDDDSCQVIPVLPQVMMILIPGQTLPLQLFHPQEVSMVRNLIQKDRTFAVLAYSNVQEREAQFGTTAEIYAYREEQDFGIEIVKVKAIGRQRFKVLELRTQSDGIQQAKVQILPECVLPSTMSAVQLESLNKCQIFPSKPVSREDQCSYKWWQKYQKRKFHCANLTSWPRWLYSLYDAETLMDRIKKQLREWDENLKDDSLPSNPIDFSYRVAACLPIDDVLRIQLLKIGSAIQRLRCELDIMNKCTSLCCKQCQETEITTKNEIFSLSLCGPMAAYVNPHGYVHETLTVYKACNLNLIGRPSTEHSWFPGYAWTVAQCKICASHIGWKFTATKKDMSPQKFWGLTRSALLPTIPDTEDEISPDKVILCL
T1 sequence (Q16531 whole entry partner, the tested form may be a part): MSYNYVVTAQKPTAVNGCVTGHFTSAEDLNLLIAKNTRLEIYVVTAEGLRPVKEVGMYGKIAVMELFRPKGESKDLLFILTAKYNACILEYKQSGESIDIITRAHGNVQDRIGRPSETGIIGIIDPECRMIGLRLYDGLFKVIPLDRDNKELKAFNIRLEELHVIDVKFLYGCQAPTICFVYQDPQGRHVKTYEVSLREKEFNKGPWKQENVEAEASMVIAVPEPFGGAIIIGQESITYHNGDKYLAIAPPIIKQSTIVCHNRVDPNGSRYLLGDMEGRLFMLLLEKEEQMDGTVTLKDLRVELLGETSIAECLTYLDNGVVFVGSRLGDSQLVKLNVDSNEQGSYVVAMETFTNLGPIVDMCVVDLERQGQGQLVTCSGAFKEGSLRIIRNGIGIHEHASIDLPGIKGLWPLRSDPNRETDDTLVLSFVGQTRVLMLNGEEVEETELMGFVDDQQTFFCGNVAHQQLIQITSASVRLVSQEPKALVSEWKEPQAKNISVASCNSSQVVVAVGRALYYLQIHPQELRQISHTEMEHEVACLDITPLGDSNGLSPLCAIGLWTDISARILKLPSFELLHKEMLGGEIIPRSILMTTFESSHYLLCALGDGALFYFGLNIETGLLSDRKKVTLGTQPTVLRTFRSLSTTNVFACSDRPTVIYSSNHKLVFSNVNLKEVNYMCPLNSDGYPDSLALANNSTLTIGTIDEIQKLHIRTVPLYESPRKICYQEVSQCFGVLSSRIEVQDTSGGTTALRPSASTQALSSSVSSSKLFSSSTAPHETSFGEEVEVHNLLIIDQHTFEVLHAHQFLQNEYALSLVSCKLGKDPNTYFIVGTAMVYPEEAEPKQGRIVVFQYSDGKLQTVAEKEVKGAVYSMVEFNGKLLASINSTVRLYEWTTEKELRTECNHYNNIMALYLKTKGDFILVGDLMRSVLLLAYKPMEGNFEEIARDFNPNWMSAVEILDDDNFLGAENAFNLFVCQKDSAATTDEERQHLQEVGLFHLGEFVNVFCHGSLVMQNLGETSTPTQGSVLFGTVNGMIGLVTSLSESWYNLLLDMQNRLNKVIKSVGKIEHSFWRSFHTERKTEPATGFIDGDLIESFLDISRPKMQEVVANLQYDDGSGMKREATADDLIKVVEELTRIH

Row | SMILES | Dmax [%] | DC50 [nM]
1 | CCOc1cc(-c2ccc(N3CCC(Cc4ccccc4)(NC(=O)CC4CCN(C(=O)CCN5CCC(c6ccc7c(c6)C(=O)N(C6CCC(=O)NC6=O)C7)CC5)CC4)CC3)nc2)c2c(C#N)cnn2c1 (stereo not shown) [Example 54, N-[4-benzyl-1-[5-(3-cyano-6-ethoxy-pyrazolo[1,5-a]pyridin-4-yl)-2-pyridyl]-4-piperidyl]-2-[1-[3-[4-[2-(2,6-dioxo-3-piperidyl)-3-oxo-isoindolin-5-yl]-1-piperidyl]propanoyl]-4-piperidyl]acetamide] | 60 to 90 | 100 to 2000
2 | CCOc1cc(-c2ccc(N3CCC(Cc4ccccc4)(NC(=O)N4CCC(CN5CCC(c6ccc7c(c6)C(=O)N(C6CCC(=O)NC6=O)C7)CC5)CC4)CC3)nc2)c2c(C#N)cnn2c1 (stereo not shown) [Example 55] | 60 to 90 | 2 to 10
3 | CCOc1cc(-c2ccc(N3CCC(Cc4ccccc4)(NC(=O)N4CCC(N5CCC(c6ccc7c(c6)C(=O)N(C6CCC(=O)NC6=O)C7)CC5)CC4)CC3)nc2)c2c(C#N)cnn2c1 (stereo not shown) [Example 56, N-[4-benzyl-1-[5-(3-cyano-6-ethoxy-pyrazolo[1,5-a]pyridin-4-yl)-2-pyridyl]-4-piperidyl]-4-[4-[2-(2,6-dioxo-3-piperidyl)-3-oxo-isoindolin-5-yl]-1-piperidyl]piperidine-1-carboxamide] | 60 to 90 | 2 to 10
4 | CCOc1cc(-c2ccc(N3CCC(Cc4ccccc4)(NC(=O)CN4CCC(CN5CCC(c6ccc7c(c6)C(=O)N(C6CCC(=O)NC6=O)C7)CC5)CC4)CC3)nc2)c2c(C#N)cnn2c1 (stereo not shown) [Example 57, N-[4-benzyl-1-[5-(3-cyano-6-ethoxy-pyrazolo[1,5-a]pyridin-4-yl)-2-pyridyl]-4-piperidyl]-2-[4-[[4-[2-(2,6-dioxo-3-piperidyl)-3-oxo-isoindolin-5-yl]-1-piperidyl]methyl]-1-piperidyl]acetamide] | 60 to 90 | 100 to 2000
5 | CCOc1cc(-c2ccc(N3CCC(CN4CCN(C5CN(C(=O)Cc6ccc7c(c6)CN(C6CCC(=O)NC6=O)C7=O)C5)CC4)(NC(=O)c4cc(F)ccc4F)CC3)nc2)c2c(C#N)cnn2c1 (stereo not shown) [Example 62, N-[1-(5-{3-cyano-6-ethoxypyrazolo[1,5-a]pyridin-4-yl}pyridin-2-yl)-4-{[4-(1-{2-[2-(2,6-dioxopiperidin-3-yl)-1-oxo-2,3-dihydro-1H-isoindol-5-yl]acetyl}azetidin-3-yl)piperazin-1-yl]methyl}piperidin-4-yl]-2,5-difluorobenzamide] | 60 to 90 | 2 to 10
6 | CCOc1cc(-c2ccc(N3CCC(CN4CCN(C5CN(C(=O)c6ccc7c(c6)CN(C6CCC(=O)NC6=O)C7=O)C5)CC4)(NC(=O)c4cc(F)ccc4F)CC3)nc2)c2c(C#N)cnn2c1 (stereo not shown) [Example 63, N-[1-(5-{3-cyano-6-ethoxypyrazolo[1,5-a]pyridin-4-yl}pyridin-2-yl)-4-[(4-{1-[2-(2,6-dioxopiperidin-3-yl)-1-oxo-2,3-dihydro-1H-isoindole-5-carbonyl]azetidin-3-yl}piperazin-1-yl)methyl]piperidin-4-yl]-2,5-difluorobenzamide] | 60 to 90 | 2 to 10
7 | CCOc1cc(-c2ccc(N3CCC(CN4CCN(C5CN(C(=O)c6ccc7c(N8CCC(=O)NC8=O)nn(C)c7c6)C5)CC4)(NC(=O)c4cc(F)ccc4F)CC3)nc2)c2c(C#N)cnn2c1 [Example 64, N-[1-(5-{3-cyano-6-ethoxypyrazolo[1,5-a]pyridin-4-yl}pyridin-2-yl)-4-[(4-{1-[3-(2,4-dioxo-1,3-diazinan-1-yl)-1-methyl-1H-indazole-6-carbonyl]azetidin-3-yl}piperazin-1-yl)methyl]piperidin-4-yl]-2,5-difluorobenzamide] | > 90 | < 2
8 | CCOc1cc(-c2ccc(N3CCC(CN4CCN(C5CN(C(=O)COc6ccc7c(c6)CN(C6CCC(=O)NC6=O)C7=O)C5)CC4)(NC(=O)c4cc(F)ccc4F)CC3)nc2)c2c(C#N)cnn2c1 (stereo not shown) [Example 65, N-[1-(5-{3-cyano-6-ethoxypyrazolo[1,5-a]pyridin-4-yl}pyridin-2-yl)-4-({4-[1-(2-{[2-(2,6-dioxopiperidin-3-yl)-1-oxo-2,3-dihydro-1H-isoindol-5-yl]oxy}acetyl)azetidin-3-yl]piperazin-1-yl}methyl)piperidin-4-yl]-2,5-difluorobenzamide] | 60 to 90 | 2 to 10
9 | CCOc1cc(-c2ccc(N3CCC(Cc4ccccc4)(NC(=O)C4CCN(C(=O)CCN5CCC(c6ccc7c(c6)CN(C6CCC(=O)NC6=O)C7=O)CC5)CC4)CC3)nc2)c2c(C#N)cnn2c1 (stereo not shown) [Example 66, N-[4-benzyl-1-(5-{3-cyano-6-ethoxypyrazolo[1,5-a]pyridin-4-yl}pyridin-2-yl)piperidin-4-yl]-1-(3-{4-[2-(2,6-dioxopiperidin-3-yl)-1-oxo-2,3-dihydro-1H-isoindol-5-yl]piperidin-1-yl}propanoyl)piperidine-4-carboxamide] | 60 to 90 | < 2
10 | CCOc1cc(-c2ccc(N3CCC(CN4CCC(CN5CCN(c6ccc7c(c6)CN(C6CCC(=O)NC6=O)C7=O)CC5)CC4)(NC(=O)c4cc(F)ccc4F)CC3)nc2)c2c(C#N)cnn2c1 (stereo not shown) [Example 69, N-(1-(5-(3-cyano-6-ethoxypyrazolo[1,5-a]pyridin-4-yl)pyridin-2-yl)-4-((4-((4-(2-(2,6-dioxopiperidin-3-yl)-1-oxoisoindolin-5-yl)piperazin-1-yl)methyl)piperidin-1-yl)methyl)piperidin-4-yl)-2,5-difluorobenzamide] | > 90 | < 2
11 | CCOc1cc(-c2ccc(N3CCC(CN4CCC(N5CC(N6CCC(c7ccc8c(c7)C(=O)N(C7CCC(=O)NC7=O)C8)CC6)C5)CC4)(NC(=O)c4cc(F)ccc4F)CC3)nc2)c2c(C#N)cnn2c1 (stereo not shown) [Example 71, N-(1-(5-(3-cyano-6-ethoxypyrazolo[1,5-a]pyridin-4-yl)pyridin-2-yl)-4-((4-(3-(4-(2-(2,6-dioxopiperidin-3-yl)-3-oxoisoindolin-5-yl)piperidin-1-yl)azetidin-1-yl)piperidin-1-yl)methyl)piperidin-4-yl)-2,5-difluorobenzamide] | > 90 | < 2
12 | CCOc1cc(-c2ccc(N3CCC(CN4CCN(C(=O)CCN5CCC(c6ccc7c(c6)C(=O)N(C6CCC(=O)NC6=O)C7)CC5)CC4)(C(=O)NC(C)C)CC3)nc2)c2c(C#N)cnn2c1 (stereo not shown) [Example 76, 1-(5-(3-cyano-6-ethoxypyrazolo[1,5-a]pyridin-4-yl)pyridin-2-yl)-4-((4-(3-(4-(2-(2,6-dioxopiperidin-3-yl)-3-oxoisoindolin-5-yl)piperidin-1-yl)propanoyl)piperazin-1-yl)methyl)-N-isopropylpiperidine-4-carboxamide] | 60 to 90 | 10 to 100
13 | CCOc1cc(-c2ccc(N3CCC(CN4CCN(C(=O)CCN5CCN(c6ccc7c(c6)CN(C6CCC(=O)NC6=O)C7=O)CC5)CC4)(C(=O)NC(C)C)CC3)nc2)c2c(C#N)cnn2c1 (stereo not shown) [Example 77, 1-(5-(3-Cyano-6-ethoxypyrazolo[1,5-a]pyridin-4-yl)pyridin-2-yl)-4-((4-(3-(4-(2-(2,6-dioxopiperidin-3-yl)-1-oxoisoindolin-5-yl)piperazin-1-yl)propanoyl)piperazin-1-yl)methyl)-N-isopropylpiperidine-4-carboxamide] | 60 to 90 | < 2
14 | CCOc1cc(-c2ccc(N3CCC(CN4CCN(C(=O)C5CC6(CC(C(=O)Nc7ccc8c(N9CCC(=O)NC9=O)nn(C)c8c7)C6)C5)CC4)(NC(=O)c4cc(F)ccc4F)CC3)nc2)c2c(C#N)cnn2c1 (stereo not shown) [Example 84, 6-(4-{[1-(5-{3-cyano-6-ethoxypyrazolo[1,5-a]pyridin-4-yl}pyridin-2-yl)-4-(2,5-difluorobenzamido)piperidin-4-yl]methyl}piperazine-1-carbonyl)-N-[3-(2,4-dioxo-1,3-diazinan-1-yl)-1-methyl-1H-indazol-6-yl]spiro[3.3]heptane-2-carboxamide] | > 90 | < 2
15 | CCOc1cc(-c2ccc(N3CCC(CN4CCN(C(=O)C5CC6(C5)CC(C(=O)N5CCN(c7ccc8c(c7)CN(C7CCC(=O)NC7=O)C8=O)CC5)C6)CC4)(NC(=O)c4cc(F)ccc4F)CC3)nc2)c2c(C#N)cnn2c1 (stereo not shown) [Example 85, N-[1-(5-{3-cyano-6-ethoxypyrazolo[1,5-a]pyridin-4-yl}pyridin-2-yl)-4-{[4-(6-{4-[2-(2,6-dioxopiperidin-3-yl)-1-oxo-2,3-dihydro-1H-isoindol-5-yl]piperazine-1-carbonyl}spiro[3.3]heptane-2-carbonyl)piperazin-1-yl]methyl}piperidin-4-yl]-2,5-difluorobenzamide] | 60 to 90 | < 2
16 | CCOc1cc(-c2ccc(N3CCC(CN4CCN(C(=O)C5CC6(C5)CC(C(=O)N5CCN(c7ccc8c(c7)C(=O)N(C7CCC(=O)NC7=O)C8)CC5)C6)CC4)(NC(=O)c4cc(F)ccc4F)CC3)nc2)c2c(C#N)cnn2c1 (stereo not shown) [Example 86, N-[1-(5-{3-cyano-6-ethoxypyrazolo[1,5-a]pyridin-4-yl}pyridin-2-yl)-4-{[4-(6-{4-[2-(2,6-dioxopiperidin-3-yl)-3-oxo-2,3-dihydro-1H-isoindol-5-yl]piperazine-1-carbonyl}spiro[3.3]heptane-2-carbonyl)piperazin-1-yl]methyl}piperidin-4-yl]-2,5-difluorobenzamide] | > 90 | < 2
17 | CCOc1cc(-c2ccc(N3CCC(CN4CCC5(CC4)CCN(C(=O)CCN4CCN(c6ccc7c(c6)CN(C6CCC(=O)NC6=O)C7=O)CC4)CC5)(NC(=O)c4cc(F)ccc4F)CC3)nc2)c2c(C#N)cnn2c1 (stereo not shown) [Example 87, N-[1-(5-{3-cyano-6-ethoxypyrazolo[1,5-a]pyridin-4-yl}pyridin-2-yl)-4-{[9-(3-{4-[2-(2,6-dioxopiperidin-3-yl)-1-oxo-2,3-dihydro-1H-isoindol-5-yl]piperazin-1-yl}propanoyl)-3,9-diazaspiro[5.5]undecan-3-yl]methyl}piperidin-4-yl]-2,5-difluorobenzamide] | > 90 | 2 to 10
